≈ marks a conversion by molar mass, not a printed value. Like-named read-outs stand apart in the source and are kept apart here.
Tests used:
L1210/0 [1] = test: Cytotoxicity, 48-hr exposure of L1210/0 leukemia cells; format: cell-based, murine; conditions: read-out: IC50 L1210/0
From the text: (§1) Murine L1210 leukemia cells sensitive (L1210/0) and resistant (L1210/L-PAM)to L-phenylalanine mustard were obtained that are adaptable to either in vitro or in vivo passage.
(§2) Broad resistance of the L1210/L-PAM cell line is shown by the approximately 4-fold and 9-fold increases in IC50, compared to L1210/0, for L-PAM and mechlorethamine, respectively (Comparative Examples 3 and 4). […].

L1210/L-PAM [2] = test: Cytotoxicity, 48-hr exposure of L-PAM resistant L1210/L-PAM leukemia cells; format: cell-based, murine; conditions: for IC50: read-out: IC50 L1210/L-PAM; for fold increase in IC50, L1210/L-PAM compared to L1210/0: 48-h exposure
From the text: as §1, §2

HCT116 = test: In vitro cytotoxicity, HCT116 human colon carcinoma; format: cell-based; conditions: data provided by Bristol-Myers Laboratories; for IC50: Homo sapiens, HCT-116
From the text: ^b Cell lines: HCT116 human colon (sensitive to VP16 and VM26)

HCT/VM46 = test: In vitro cytotoxicity, VM26 resistant HCT/VM46 human colon carcinoma; format: cell-based; conditions: for IC50 HCT/VM46 / IC50: VM26 resistant, data provided by Bristol-Myers Laboratories; for ratio of IC50 values HCT/VM46 vs HCT116: IC50 divided by IC50 for HCT116; for IC50: Homo sapiens; for fold increase in IC50, HCT/VM46: vs HCT116
From the text: | HCT/VM46 human colon, VM26 resistant

HCT/VP35 = test: In vitro cytotoxicity, VP16 resistant HCT/VP35 human colon carcinoma; format: cell-based; conditions: for IC50 HCT/VP35 / IC50: VP16 resistant, data provided by Bristol-Myers Laboratories; for ratio of IC50 values HCT/VP35 vs HCT116: IC50 divided by IC50 for HCT116; for IC50: Homo sapiens, HCT/VP35; for fold increase in IC50, HCT/VP35: vs HCT116
From the text: | HCT/VP35 human colon, VP16 resistant

L1210/0 [3] = conditions: cited from earlier work
[4] = compared with chlorambucil; cited from earlier work
L1210/L-PAM [5] = conditions: L1210/L-PAM line; cited from earlier work
[6] = test system: HT29 human colon carcinoma cells; test: Growth inhibition cytotoxicity against HT29 human colon carcinoma cells (MER(+)); format: cell-based; conditions: HT-29
From the text: (Example 15) These cells are very high in the alkyltransferase enzyme for repair of DNA guanine O6-alkyl products, and therefore are considered strongly MER(+) in phenotype. Levels of this enzyme in HT29 cells have averaged about 0.5 pmol/mg protein in recent studies (K. Chan, et al., unpublished). […] Thus, the lack of cross-resistance to ethyleneimines by the present invention of 2-chloroethyl aryl selenones is not associated with resistence mediated by the alkyltransferase repair enzyme.

[7] = Mus musculus, L1210/0, 48-hr exposure
[8] = Mus musculus, L1210/LPAM, 48-hr exposure

Q: With “2,6Bis(3-methanesulfonylpropylseleno)lutidine [Lutidine Derivative]” as the compound, how does the IC50 (L1210/0 [1]; 48-hr exposure) read?
A: 12 µM

Q: What about the “Ratio of IC50s (L1210/L-PAM vs L1210/0)” value (L1210/L-PAM [2]; 48-hr exposure) of the same compound?
A: 2.3

Q: And the IC50 (L1210/L-PAM [2]; 48-hr exposure)?
A: 28 µM

Q: What about the “IC50 HCT116” value (HCT116) of the same compound?
A: > 15.6 µg/mL

Q: And the “IC50 HCT/VM46” value (HCT/VM46)?
A: > 15.6 µg/mL

Q: And the “IC50 HCT/VP35” value (HCT/VP35)?
A: > 15.6 µg/mL

Q: Which “IC50 HCT116” value (HCT116) does the source give for 3-methanesulfonylpropyl phenyl selenone here?
A: 6.34 µg/mL

Q: What about the “ratio of IC50 values HCT/VM46 vs HCT116” value (HCT/VM46) of the same compound?
A: 0.8

Q: And the “IC50 HCT/VM46” value (HCT/VM46)?
A: 4.93 µg/mL

Q: And the “ratio of IC50 values HCT/VP35 vs HCT116” value (HCT/VP35)?
A: 0.8

Q: And the “IC50 HCT/VP35” value (HCT/VP35)?
A: 5.15 µg/mL

Q: For CS(=O)(=O)OCCC[Se]CCCOS(C)(=O)=O [(MsOCH2 CH2 CH2)2 Se], which IC50 (L1210/0 [1]; [7]) is on record?
A: 2.3 µM

Q: What about the “fold increase in IC50, L1210/L-PAM compared to L1210/0” value (L1210/L-PAM [2]) of the same compound?
A: 7 fold

Q: What about the “Ratio of IC50s (L1210/L-PAM vs L1210/0)” value (L1210/L-PAM [2]; 48-hr exposure) of the same compound?
A: 7.0

Q: And the IC50 (L1210/L-PAM [2]; [8])?
A: 16 µM

Q: For O=NN(CCCl)C(=O)NCCCl [BCNU, carmustine], which “sensitivity of parent L1210/0 line” value (L1210/0 [3]) is on record?
A: sensitive

Q: For CS(=O)(=O)OCCCCOS(C)(=O)=O [Busulfan], which IC50 (L1210/0 [1]; [7]) is on record?
A: 55 µM

Q: What about the “Ratio of IC50s (L1210/L-PAM vs L1210/0)” value (L1210/L-PAM [2]; 48-hr exposure) of the same compound?
A: 1.1

Q: And the IC50 (L1210/L-PAM [2]; [8])?
A: 60 µM

Q: Which nucleophilic selectivity [4] does the source give for CS(=O)(=O)CS(=O)(=O)OCCCl [Clomesone] here?
A: relatively high nucleophilic selectivity approaching that of chlorambucil

Q: With N[C@@H](Cc1ccc(N(CCCl)CCCl)cc1)C(=O)O [L-Phenylalanine Mustard (L-PAM), L-Phenylalanine Mustard] as the compound, how does the IC50 (L1210/0 [1]; Mus musculus, L1210/0, 48 h) read?
A: 1.6 µM

Q: What about the “fold increase in IC50, L1210/L-PAM compared to L1210/0” value (L1210/L-PAM [2]) of the same compound?
A: approximately 4 fold

Q: And the “Ratio of IC50s (L1210/L-PAM vs L1210/0)” value (L1210/L-PAM [2]; 48-hr exposure)?
A: 4.4

Q: What about the IC50 (L1210/L-PAM [2]; Mus musculus, L1210/LPAM, 48 h) of the same compound?
A: 7 µM

Q: What about the “in vivo resistance (log cell kill differential)” value (L1210/L-PAM [5]) of the same compound?
A: 4 log

Q: What about the “sensitivity of parent L1210/0 line” value (L1210/0 [3]) of the same compound?
A: sensitive

Q: For CS(=O)(=O)OCCC[Se]c1ccccc1 [PhSeCH2 CH2 CH2 OMs], which IC50 (L1210/0 [1]; [7]) is on record?
A: 52 µM

Q: What about the “Ratio of IC50s (L1210/L-PAM vs L1210/0)” value (L1210/L-PAM [2]; 48-hr exposure) of the same compound?
A: 1.9

Q: And the IC50 (L1210/L-PAM [2]; [8])?
A: 100 µM

Q: Which results are given for COc1cc([C@@H]2c3cc4c(cc3[C@@H](O[C@@H]3O[C@@H]5CO[C@@H](c6cccs6)O[C@H]5[C@H](O)[C@H]3O)[C@H]3COC(=O)[C@H]23)OCO4)cc(OC)c1O [VM-26 (Teniposide), Teniposide]?
A: IC50 (HCT116): 0.035 µg/mL (≈ 0.0533 µM); IC50 (HCT/VM46): 0.17 µg/mL (≈ 0.259 µM); ratio of IC50 values HCT/VM46 vs HCT116 (HCT/VM46): 4.9; fold increase in IC50, HCT/VM46 (HCT/VM46): 4.9 fold; IC50 (HCT/VP35): 0.53 µg/mL (≈ 0.807 µM); ratio of IC50 values HCT/VP35 vs HCT116 (HCT/VP35): 15.1; fold increase in IC50, HCT/VP35 (HCT/VP35): 15.1 fold

Q: With COc1cc([C@@H]2c3cc4c(cc3[C@@H](O[C@@H]3O[C@@H]5CO[C@@H](C)O[C@H]5[C@H](O)[C@H]3O)[C@H]3COC(=O)[C@H]23)OCO4)cc(OC)c1O [VP-16 (Etoposide), Etoposide] as the compound, how does the IC50 (HCT116) read?
A: 0.46 µg/mL (≈ 0.782 µM)

Q: And the IC50 (HCT/VM46)?
A: 1.48 µg/mL (≈ 2.51 µM)

Q: What about the “ratio of IC50 values HCT/VM46 vs HCT116” value (HCT/VM46) of the same compound?
A: 3.2

Q: What about the “fold increase in IC50, HCT/VM46” value (HCT/VM46) of the same compound?
A: 3.2 fold

Q: What about the IC50 (HCT/VP35) of the same compound?
A: 4.62 µg/mL (≈ 7.85 µM)

Q: And the “ratio of IC50 values HCT/VP35 vs HCT116” value (HCT/VP35)?
A: 10.0

Q: What about the “fold increase in IC50, HCT/VP35” value (HCT/VP35) of the same compound?
A: 10.0 fold

Q: Which IC50 [6] does the source give for NC(=O)N(CCCl)N=O [chloroethylnitrosourea (CNU), chloroethylnitrosourea, reference compound] here?
A: 250 µM

Q: What does the source list for O=P1(N(CCCl)CCCl)NCCCO1 (stereo not drawn) [cyclophosphamide]?
A: in vivo resistance (log cell kill differential) (L1210/L-PAM [5]): > 2 log; sensitivity of parent L1210/0 line (L1210/0 [3]): sensitive

Q: For S=P(N1CC1)(N1CC1)N1CC1 [thioTEPA], which “in vivo resistance (log cell kill differential)” value (L1210/L-PAM [5]) is on record?
A: 4 log

Q: What about the “sensitivity of parent L1210/0 line” value (L1210/0 [3]) of the same compound?
A: sensitive

Q: For (CH3)2 NCSeCH2 CH2 Cl, which IC50 (L1210/0 [1]; 48-hr exposure) is on record?
A: 18 µM

Q: What about the “Ratio of IC50s (L1210/L-PAM vs L1210/0)” value (L1210/L-PAM [2]; 48-hr exposure) of the same compound?
A: 1.7

Q: What about the IC50 (L1210/L-PAM [2]; 48-hr exposure) of the same compound?
A: 30 µM

Reference: patent publication US5614562A, “Method of treating drug resistant tumor cells using organoselenones” (The University of Sourthern California, priority 1992, dated 1997)
